Measurements reported in article PMC12082625, “Redox-State-Dependent Structural Changes within a Prokaryotic 6–4 Photolyase” (Journal of the American Chemical Society, 2025).
Blank lines part the entries; values can stand above or below the compound they belong to.

Assays:
Format in all cases: binding
Cc(6–4)PL [1] = target: T1, Cc(6–4)PL (Caulobacter vibrioides, UniProt Q9AAF5); assay: XFEL serial femtosecond crystallography; conditions: dark-adapted oxidized state, room temperature; N-terminal antenna site; co-purified cofactor
T1 construct: gene CC_0646; pET28-based, nickel-NTA purified (His-tagged by implication) from E. coli BL21(DE3); model spans M1-S508; contains FAD, DLZ and [4Fe-4S] cluster
T1 sequence (Q9AAF5 1-509): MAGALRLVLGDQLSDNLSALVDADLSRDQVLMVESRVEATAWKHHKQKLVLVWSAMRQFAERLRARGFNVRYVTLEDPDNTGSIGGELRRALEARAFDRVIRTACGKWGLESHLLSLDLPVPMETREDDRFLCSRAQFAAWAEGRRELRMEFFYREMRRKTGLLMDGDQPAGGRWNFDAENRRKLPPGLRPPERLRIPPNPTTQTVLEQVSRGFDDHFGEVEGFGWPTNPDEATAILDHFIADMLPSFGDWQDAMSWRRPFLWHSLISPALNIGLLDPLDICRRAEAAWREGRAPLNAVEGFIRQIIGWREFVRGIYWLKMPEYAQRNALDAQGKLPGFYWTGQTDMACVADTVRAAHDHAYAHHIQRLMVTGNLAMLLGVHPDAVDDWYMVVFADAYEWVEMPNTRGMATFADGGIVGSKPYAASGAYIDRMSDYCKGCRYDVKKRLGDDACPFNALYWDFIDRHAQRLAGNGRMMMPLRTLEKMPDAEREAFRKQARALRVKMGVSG

Cc(6–4)PL [2] = target: T2, Cc(6–4)PL (Caulobacter vibrioides, UniProt Q9AAF5, K48A); assay: X-ray crystal structure (synchrotron, […] Å); UV/vis spectroscopy; conditions: antenna site; occupancy in crystal, not an affinity
T2 construct: gene CC_0646; pET28-based, nickel-NTA purified (His-tagged by implication) from E. coli BL21(DE3); model spans M1-S508; contains FAD, DLZ and [4Fe-4S] cluster
T2 sequence (Q9AAF5 entry or part of it K48A): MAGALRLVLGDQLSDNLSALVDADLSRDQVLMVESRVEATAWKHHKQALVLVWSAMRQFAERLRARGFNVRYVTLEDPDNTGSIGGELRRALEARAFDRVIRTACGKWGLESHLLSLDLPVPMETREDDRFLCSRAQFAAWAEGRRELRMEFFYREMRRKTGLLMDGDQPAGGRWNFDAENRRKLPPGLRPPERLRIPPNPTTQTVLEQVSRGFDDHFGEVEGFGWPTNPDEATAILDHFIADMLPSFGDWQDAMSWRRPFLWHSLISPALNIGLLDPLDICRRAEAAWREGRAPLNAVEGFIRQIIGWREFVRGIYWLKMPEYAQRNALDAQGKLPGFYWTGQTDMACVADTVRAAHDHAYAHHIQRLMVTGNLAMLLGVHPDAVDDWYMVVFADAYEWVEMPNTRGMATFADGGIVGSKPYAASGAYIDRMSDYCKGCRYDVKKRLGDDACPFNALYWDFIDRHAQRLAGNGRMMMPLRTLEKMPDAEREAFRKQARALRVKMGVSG

Cc(6–4)PL [3] = target: T1, Cc(6–4)PL; assay: XFEL serial femtosecond crystallography; in crystallo UV-vis; conditions: photoreduced in crystals, 50 mM DTT, anaerobic, 30 min white light and blue LED; catalytic FAD site
Cc(6–4)PL [4] = target: T1, Cc(6–4)PL; assay: XFEL serial femtosecond crystallography and synchrotron crystal structures; conditions: dark-adapted oxidized state, room temperature; catalytic FAD site; co-purified cofactor

occupancy (Cc(6–4)PL [2]): ~ 50%
SMILES: Cc1nc2c(=O)[nH]c(=O)nc-2n(C[C@H](O)[C@H](O)[C@H](O)CO)c1C [DLZ]
XFEL serial femtosecond crystallography (Cc(6–4)PL [1]): Structural analysis reveals an intricate DLZ binding pocket with interactions involving several key residues

SMILES: Cc1cc2c(cc1C)N(C[C@H](O)[C@H](O)[C@H](O)COP(=O)(O)OP(=O)(O)OC[C@H]1O[C@@H](n3cnc4c(N)ncnc43)[C@H](O)[C@@H]1O)c1[nH]c(=O)[nH]c(=O)c1N2 [FADH–]
XFEL serial femtosecond crystallography; in crystallo UV-vis (Cc(6–4)PL [3]): structural changes occurred in the FAD binding site compared to the FADox state

SMILES: Cc1cc2nc3c(=O)[nH]c(=O)nc-3n(C[C@H](O)[C@H](O)[C@H](O)COP(=O)(O)OP(=O)(O)OC[C@H]3O[C@@H](n4cnc5c(N)ncnc54)[C@H](O)[C@@H]3O)c2cc1C [FADox]
XFEL serial femtosecond crystallography and synchrotron crystal structures (Cc(6–4)PL [4]): the damage-free structures reveal FAD’s binding arrangement with its isoalloxazine moiety engaging key amino acid residues
